The source of these data is patent US10206388B2, “Formulation component” (SYNGENTA LIMITED, priority 2011, dated 2019).

What all share (type): in vivo
Assay [1] has as its system four weed species (POLCO, BRAL, DIGSA, COMBE). The experiment in a line: Glasshouse weed test, fomesafen with adjuvants, mean across species. To be noted: mean over two rates, three replicates, 14 and 21 days. Here is the method: An agrochemical composition was prepared containing 0.2% v/v of the adjuvant in a track sprayer and was applied at a volume of 200 liters per hectare. The adjuvant oils were emulsified using a small amount of the surfactant Pluronic® PE 10500, which was present in the composition at a concentration of 0.02% v/v. Fomesafen was applied at either 60 or 120 grams of pesticide per hectare on each of the weed species. The weed species and their growth stage at spraying were Polygonum convolvulus (POLCO; growth stage 13-14), Brachiaria plantaginea (BRAL; growth stage 13-14), Digitaria sanguinalis (DIGSA; growth stage 14), and Commelina benghalensis (COMBE; growth stage 13-14).
Each spray test was replicated three times. The efficacy of the herbicide was assessed visually and expressed as a percentage of the leaf area killed. Samples were assessed at time periods of 14 and 21 days following application. The results shown in Table 20 below are mean averages over the two rates of fomesafen, three replicates the two assessment timings, and the four weed species, and are compared to the efficacy of fomesafen in the absence of an adjuvant, and fomesafen in the presence of the commercially available adjuvant Turbocharge®.
An agrochemical composition was prepared containing either 0.2, 0.1, 0.05 or 0.025% v/v of the adjuvant in a track sprayer and was applied at a volume of 200 liters per hectare. The commercial adjuvant Turbocharge® was applied at 0.5% v/v. Fomesafen was applied at either 60 or 120 grams of pesticide per hectare on each of the weed species. The weed species and their growth stage at spraying were Polygonum convolvulus (POLCO; growth stage 13-14), Brachiaria plantaginea (BRAL; growth stage 12-13), Digitaria sanguinalis (DIGSA; growth stage 13), and Commelina benghalensis (COMBE; growth stage 12).
Each spray test was replicated three times. The efficacy of the herbicide was assessed visually and expressed as a percentage of the leaf area killed. Samples were assessed at time periods of 14 and 21 days following application. The results shown in Table 24 below are mean averages over the two rates of fomesafen, three replicates the two assessment timings, and the four weed species, and are compared to the efficacy of fomesafen in the absence of an adjuvant, and fomesafen in the presence of the commercially available adjuvant Turbocharge®. […]
Each spray test was replicated three times. The efficacy of the herbicide was assessed visually and expressed as a percentage of the leaf area killed. Samples were assessed at time periods of 14 and 21 days following application. […]

Assay [2] deals with Chenopodium album (CHEAL). The experiment in a line: Glasshouse weed test, fomesafen with adjuvants. To be noted: Table 8, Example 6: fomesafen 60 or 120 g/ha; adjuvant 0.2% v/v; mean over two rates, three replicates, 7, 14 and 20 days. Here is the method: (§1) The aromatic ester Finsolv® TN (C12-C15 alkyl benzoate) was tested in a glasshouse against four weed species using the herbicide fomesafen. An agrochemical composition was prepared containing 0.2% v/v of the adjuvant in a track sprayer and was applied at a volume of 200 liters per hectare. Fomesafen was applied at either 60 or 120 grams of pesticide per hectare on each of the weed species. The weed species and their growth stage at spraying were Chenopodium album (CHEAL; growth stage 14), Abutilon theophrasti (ABUTH; growth stage 12), Setaria viridis (SETVI; growth stage 13), and Xanthium strumarium (XANST; growth stage 12).
(§2) Each spray test was replicated three times. The efficacy of the herbicide was assessed visually and expressed as a percentage of the leaf area killed. Samples were assessed at time periods of 7, 14 and 20 days following application. The results shown in Table 8 below are mean averages over the two rates of fomesafen, three replicates and the three assessment timings, and are compared to the efficacy of fomesafen in the absence of an adjuvant, and fomesafen in the presence of the commercially available adjuvant Turbocharge®.

For assay [3], the system named is Abutilon theophrasti (ABUTH). The experiment in a line: Glasshouse weed test, fomesafen with adjuvants. To be noted: Table 8, Example 6: fomesafen 60 or 120 g/ha; adjuvant 0.2% v/v; mean over two rates, three replicates, 7, 14 and 20 days. Here is the method:
as §1, §2

The test system of assay [4] is Xanthium strumarium (XANST). The experiment in a line: Glasshouse weed test, fomesafen with adjuvants. Conditions: Table 8, Example 6: fomesafen 60 or 120 g/ha; adjuvant 0.2% v/v; mean over two rates, three replicates, 7, 14 and 20 days. Here is the method: as §1, §2
For another assay, the system named is Setaria viridis (SETVI). The experiment in a line: Glasshouse weed test, fomesafen with adjuvants. Conditions: Table 8, Example 6: fomesafen 60 or 120 g/ha; adjuvant 0.2% v/v; mean over two rates, three replicates, 7, 14 and 20 days. Here is the method: as §1, §2
In assay [5] the test system is four weed species (CHEAL, ABUTH, SETVI, XANST). The assay can be described thus: Glasshouse weed test, fomesafen with adjuvants, mean across species. To be noted: adjuvant 0.2% v/v, mean over two rates. Here is the method: as §1, §2
A second experiment was conducted to assess the efficacy of Finsolv® TN as an adjuvant in compositions of fomesafen. This was carried out as outlined above, with the following change: samples were assessed at 6, 14 and 20 days post application.
The results shown in Table 9 below are mean averages over the two rates of fomesafen, three replicates, three assessment timings, and four weed species and are compared to the efficacy of fomesafen in the absence of an adjuvant, and fomesafen in the presence of the commercially available tank-mix adjuvant, Turbocharge®.
An agrochemical composition was prepared containing 0.2% v/v of the adjuvant in a track sprayer and was applied at a volume of 200 liters per hectare. […]
Each spray test was replicated three times. The efficacy of the herbicide was assessed visually and expressed as a percentage of the leaf area killed. Samples were assessed at time periods of 7, 14 and 20 days following application. […]

Turning to `CS(=O)(=O)NC(=O)c1cc(Oc2ccc(C(F)(F)F)cc2Cl)ccc1[N+](=O)[O-]` [Fomesafen, fomesafen], the “Mean percentage kill, Mean across species” value in assay [1] (Table 20, Example 16: fomesafen 60 or 120 g/ha, adjuvant 0.2% v/v emulsified with Pluronic PE 10500 0.02% v/v) is recorded as 24.3D %; in assay [1] (Table 24, Example 20: absence of an adjuvant, fomesafen 60 or 120 g/ha) it was 17.8E %; in assay [1] (Table 28, Example 25: fomesafen 60 or 120 g/ha, adjuvant 0.2% v/v), 32.8C %; in assay [1] (Table 34, Example 34: fomesafen 60 or 120 g/ha, adjuvant 0.2% v/v) it was 17.8B %; in assay [5] (Table 8, Example 6: fomesafen 60 or 120 g/ha, three replicates, 7, 14 and 20 days), 31.0 C %; in assay [5] (Table 9, Example 6 second experiment: fomesafen 60 or 120 g/ha, three replicates, 6, 14 and 20 days, four weed species) it was 44.9 B %. For the same compound, the “Mean percentage kill, Mean across species” value in assay [5] (Table 15, Example 11: fomesafen 60 or 120 g/ha, three replicates, 7, 14 and 20 days, four weed species) was 37.7 C %. Moreover, the “Mean percentage kill CHEAL” value in assay [2] is given as 34.7 C %. Further, in assay [3], the “Mean percentage kill ABUTH” value turned out to be 19.7 C %. Moreover, in assay [4], the “Mean percentage kill XANST” value is listed as 59.2 C %. Also, the “Mean percentage kill SETVI” value in the assay on Setaria viridis (SETVI) came out at 10.3 B %.
